Results reported in PubChem BioAssay AID1645861 (Buhrlage Lab, Dana-Farber Cancer Institute and Novartis …, 2021).
pIC50: −log10 of the molar value. Calls of active or inactive are those of the source.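 The calls were made as follows: active = compounds whose peak USP7 inhibition across the dose series reached 30% or more; inactive = the rest.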

Target: Ubiquitin carboxyl-terminal hydrolase 7 (Homo sapiens) (UniProt Q93009)
Assay: Biochemical concentration-response for ubiquitin-specific peptidase 7 DUB inhibitors, verifying primary hits (AID 1645861)
Conditions: purified USP7, Ub-rhodamine cleavage fluorescence, 60 min

Chain of Ubiquitin carboxyl-terminal hydrolase 7 (Homo sapiens) (Q93009 whole entry, looked up): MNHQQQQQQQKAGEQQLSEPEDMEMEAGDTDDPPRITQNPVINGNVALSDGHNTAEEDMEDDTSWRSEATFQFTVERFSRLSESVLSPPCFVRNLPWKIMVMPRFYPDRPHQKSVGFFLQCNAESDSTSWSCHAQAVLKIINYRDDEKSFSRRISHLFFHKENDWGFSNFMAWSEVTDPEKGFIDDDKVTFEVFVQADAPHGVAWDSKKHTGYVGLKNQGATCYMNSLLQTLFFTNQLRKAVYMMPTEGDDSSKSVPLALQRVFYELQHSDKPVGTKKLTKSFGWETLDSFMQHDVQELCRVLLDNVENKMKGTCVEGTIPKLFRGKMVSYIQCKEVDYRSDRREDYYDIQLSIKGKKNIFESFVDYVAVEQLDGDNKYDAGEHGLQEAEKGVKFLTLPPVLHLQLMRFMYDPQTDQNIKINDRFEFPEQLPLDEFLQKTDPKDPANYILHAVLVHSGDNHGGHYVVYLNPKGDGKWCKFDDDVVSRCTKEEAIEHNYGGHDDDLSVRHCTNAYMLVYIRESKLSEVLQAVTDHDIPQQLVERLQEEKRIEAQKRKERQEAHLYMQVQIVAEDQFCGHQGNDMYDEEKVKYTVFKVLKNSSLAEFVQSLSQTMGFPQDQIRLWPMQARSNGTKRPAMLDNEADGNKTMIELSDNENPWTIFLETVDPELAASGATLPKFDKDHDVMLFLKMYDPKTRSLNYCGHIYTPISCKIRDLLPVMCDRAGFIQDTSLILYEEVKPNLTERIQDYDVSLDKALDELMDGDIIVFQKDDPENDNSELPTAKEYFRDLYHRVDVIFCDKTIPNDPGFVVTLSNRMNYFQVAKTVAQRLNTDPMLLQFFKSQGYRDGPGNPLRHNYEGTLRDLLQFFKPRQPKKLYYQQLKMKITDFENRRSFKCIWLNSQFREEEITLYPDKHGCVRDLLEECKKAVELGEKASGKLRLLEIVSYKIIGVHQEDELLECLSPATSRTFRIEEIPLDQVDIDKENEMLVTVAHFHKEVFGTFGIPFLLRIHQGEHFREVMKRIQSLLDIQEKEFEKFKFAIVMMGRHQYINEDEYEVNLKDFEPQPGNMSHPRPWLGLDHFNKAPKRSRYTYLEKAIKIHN

**Q.** With `CCOc1ccc2c(c1)c(=O)c(C(=O)c1ccccc1)cn2CC(=O)Nc1ccc2c(c1)OCCO2` as the compound, how does the IC50 read?
**A.** The IC50 was > 50 µM (inactive).

**Q.** How did the IC50 turn out when `COc1cccc(NC(=O)Cn2cc(C(=O)c3ccc(C)cc3)c(=O)c3cc(Cl)ccc32)c1` was run?
**A.** The IC50 was > 50 µM (inactive).

**Q.** How did the IC50 turn out when `CCOC(=O)c1ccc(NC(=O)Cn2c(=O)n(CC(=O)NCc3ccco3)c(=O)c3ccccc32)cc1` was run?
**A.** The IC50 was > 50 µM (inactive).

**Q.** For `Cn1c(=O)c2ncnnc2n(C)c1=O`, which IC50 is on record?
**A.** The IC50 was > 50 µM (inactive).

**Q.** With `CCOC(=O)c1ccc(Oc2sccc2[N+](=O)[O-])cc1` as the compound, how does the pIC50 read?
**A.** The pIC50 was 4.97.

**Q.** How did the IC50 turn out when `COc1cc(OC)cc(N2C(=O)N(CC(=O)c3ccc(Br)cc3)c3ccccc3S2(=O)=O)c1` was run?
**A.** The IC50 was > 50 µM (inactive).

**Q.** Which IC50 does the source give for `Cc1cccc(NC(=O)Nc2nnc(CC(=O)NCc3ccccc3)s2)c1` here?
**A.** The IC50 was > 50 µM (inactive).

**Q.** How did the pIC50 turn out when `O=C1C(=O)N(c2nc3ccc(F)cc3s2)C(c2ccc(F)cc2)/C1=C(\O)c1ccc(F)cc1` (stereo not given) was run?
**A.** Its pIC50 is 4.51.

**Q.** `O=c1[nH]c(C2CCN(S(=O)(=O)c3ccc(S(=O)(=O)NC4CCCC4)cc3)CC2)nc2c1nnn2Cc1cccc(Cl)c1` was tested. Which IC50 did it give?
**A.** The IC50 was > 50 µM (inactive).

**Q.** Which IC50 does the source give for `CCOC(=O)N1CCN(C(=O)c2ccc(NCc3ccc(F)cc3)c(S(=O)(=O)Nc3cccc(C(F)(F)F)c3)c2)CC1` here?
**A.** Its IC50 is > 50 µM (inactive).

**Q.** How did the pIC50 turn out when `C=C1C=C(CCC(=O)O)C(=O)OC1/C=C/C=C/C` (stereo not given) was run?
**A.** The pIC50 was 4.74.

**Q.** With `O=C(CCCC(=O)N(c1ccc2c(c1)OCCO2)C(C(=O)NC1CCCCC1)c1ccc(F)cc1)Nc1ccccn1` (stereo not given) as the compound, how does the IC50 read?
**A.** The IC50 was > 50 µM (inactive).

**Q.** For `Nc1c(-c2nc(-c3ccccc3Cl)no2)nnn1-c1ccc(Cl)cc1`, which IC50 is on record?
**A.** The IC50 was > 50 µM (inactive).

**Q.** With `O=C(Cn1cccc(-c2nc(-c3ccccc3)no2)c1=O)Nc1ccccc1F` as the compound, how does the IC50 read?
**A.** The IC50 was > 50 µM (inactive).

**Q.** For `COc1cc(Cl)c(C)cc1NC(=O)Cn1c(=O)n(CC(=O)NCc2ccco2)c(=O)c2ccccc21`, which IC50 is on record?
**A.** The IC50 was > 50 µM (inactive).

**Q.** `COc1ccc(CC(=O)Nc2ccccc2-c2nc3ccccc3[nH]2)cc1OC` was tested. Which IC50 did it give?
**A.** Its IC50 is > 50 µM (inactive).

**Q.** `COc1ccc(Nc2nc3c(S(=O)(=O)c4ccc(C)cc4)nnn3c3ccsc23)c(OC)c1` was tested. Which IC50 did it give?
**A.** Its IC50 is > 50 µM (inactive).

**Q.** `COc1cc2c(=O)n(CCC(=O)NC3CCCC3)c(=O)n(CC(=O)Nc3cccc(Cl)c3)c2cc1OC` was tested. Which IC50 did it give?
**A.** Its IC50 is > 50 µM (inactive).

**Q.** Which IC50 does the source give for `CCC(=O)N1c2ccccc2NC2=C(C(=O)CC(c3ccccc3OCc3ccccc3)C2)C1c1ccccc1` (stereo not given) here?
**A.** Its IC50 is > 50 µM (inactive).

**Q.** With `O=C(Cn1c(-c2ccccc2)ncc(C(=O)NC2CC2)c1=O)Nc1ccccc1` as the compound, how does the IC50 read?
**A.** Its IC50 is > 50 µM (inactive).

**Q.** How did the IC50 turn out when `CCCCCCCC1OC(=O)Cc2cc(O)c(O)c(O)c21` (stereo not given) was run?
**A.** The IC50 was > 50 µM (inactive).

**Q.** How did the pIC50 turn out when `CCOc1ccc2c(c1)c(=O)c(C(=O)c1ccccc1)cn2CC(=O)Nc1ccc(Cl)cc1` was run?
**A.** Its pIC50 is 4.38.

**Q.** For `Cn1c2ccccc2c2ncn(CCCN3CCOCC3)c(=O)c21`, which IC50 is on record?
**A.** Its IC50 is > 50 µM (inactive).

**Q.** For `O=C(CCn1c(=O)c2ccccc2n(Cc2ccc(F)cc2Cl)c1=O)NCc1ccco1`, which IC50 is on record?
**A.** Its IC50 is > 50 µM (inactive).

**Q.** `Cc1ccc(Nc2nc3c(S(=O)(=O)c4ccccc4)nnn3c3ccccc23)c(C)c1` was tested. Which pIC50 did it give?
**A.** The pIC50 was 4.32.

**Q.** `O=C1C=C(O)c2c(O)cccc2C1=O` was tested. Which IC50 did it give?
**A.** The IC50 was > 50 µM (inactive).

**Q.** Which IC50 does the source give for `O=c1c(S(=O)(=O)c2cc(F)cc(F)c2)c[nH]c2cc(Cl)ccc12` here?
**A.** The IC50 was > 50 µM (inactive).

**Q.** Which IC50 does the source give for `O=C(COc1ccccc1-c1nnc(-c2ccccc2)o1)NCCc1ccco1` here?
**A.** The IC50 was > 50 µM (inactive).

**Q.** For `Oc1cccc2nc3c(O)cccc3nc12`, which IC50 is on record?
**A.** The IC50 was > 50 µM (inactive).

**Q.** For `CC1=C(Cn2c3cccc(=O)c-3nc3ccccc32)CCC(C)(C)C1`, which IC50 is on record?
**A.** Its IC50 is > 50 µM (inactive).

**Q.** How did the pIC50 turn out when `O=C(Cn1c(=O)n(Cc2ccccc2)c(=O)c2ncccc21)NCc1ccccc1Cl` was run?
**A.** The pIC50 was 4.36.

**Q.** `O=C(CCn1c(=O)c2ccccc2n(Cc2ccccc2F)c1=O)NCc1ccco1` was tested. Which IC50 did it give?
**A.** Its IC50 is > 50 µM (inactive).

**Q.** Which IC50 does the source give for `CCOc1ccc2cc3c(nc2c1)OC(=O)N(Cc1ccc(OC)cc1)C3` here?
**A.** The IC50 was > 50 µM (inactive).

**Q.** For `CC(C)[C@H]1CC[C@@]2(CO2)[C@H]2C(=O)OCC(C(=O)O)=C[C@H]12`, which IC50 is on record?
**A.** Its IC50 is > 50 µM (inactive).

**Q.** How did the pIC50 turn out when `CSc1ccc(CNC(=O)Cn2nc(C)c3c(C)n(-c4ccccc4)nc3c2=O)cc1` was run?
**A.** The pIC50 was 4.34.

**Q.** Which IC50 does the source give for `Cn1c(=O)[nH]c2nncnc2c1=O` here?
**A.** Its IC50 is > 50 µM (inactive).

**Q.** For `Cc1cccc(NC(=O)CSc2nc3c(cc2C#N)C(=O)CCC3)c1`, which IC50 is on record?
**A.** The IC50 was > 50 µM (inactive).

**Q.** `O=C(CCCCn1c(=O)c2ccccc2n(CC(=O)Nc2ccc3c(c2)OCCO3)c1=O)NCc1ccco1` was tested. Which IC50 did it give?
**A.** The IC50 was > 50 µM (inactive).

**Q.** For `Cc1ccc([N+](=O)[O-])cc1S(=O)(=O)Nc1cc2sc(=O)oc2c2ccccc12`, which IC50 is on record?
**A.** The IC50 was > 50 µM (inactive).

**Q.** With `COc1c(O)cc(CC(=O)O)c(C(C)=O)c1O` as the compound, how does the pIC50 read?
**A.** Its pIC50 is 4.32.

**Q.** `COc1ccc(OC)c(-c2cn3ccn(-c4ccc(F)c(Cl)c4)c(=O)c3n2)c1` was tested. Which IC50 did it give?
**A.** The IC50 was > 50 µM (inactive).

**Q.** With `COc1ccccc1-c1nc(-c2cn(-c3ccc(F)cc3)nn2)no1` as the compound, how does the pIC50 read?
**A.** The pIC50 was 4.36.

**Q.** With `CCCCCCCCCCCCCCCc1cc(O)cc(O)c1C(=O)O` as the compound, how does the pIC50 read?
**A.** Its pIC50 is 4.51.

**Q.** Which IC50 does the source give for `COc1ccc(/C=C/C(=O)Nc2cccc(S(=O)(=O)Nc3ccccc3Cl)c2)c(OC)c1` here?
**A.** Its IC50 is > 50 µM (inactive).

**Q.** For `Cn1nc(C(=O)N2CCC(c3ccccc3)C2)c2c1-c1ccsc1CC2` (stereo not given), which IC50 is on record?
**A.** The IC50 was > 50 µM (inactive).

**Q.** `CCCCCCCc1cc(OC(=O)c2c(CCCCCCC)cc(O)cc2O[C@@H]2O[C@H](CO)[C@H](O)[C@H](O)[C@H]2O)cc(O)c1C(=O)O` was tested. Which pIC50 did it give?
**A.** Its pIC50 is 4.67.

**Q.** How did the IC50 turn out when `Cc1cccc(-n2ccnc(SCC(=O)Nc3ccc(Cl)cc3F)c2=O)c1` was run?
**A.** Its IC50 is > 50 µM (inactive).

**Q.** With `O=C(Cn1c(=O)c2ccccc2c2ccccc21)Nc1ccc2c(c1)OCO2` as the compound, how does the IC50 read?
**A.** The IC50 was > 50 µM (inactive).

**Q.** `NS(=O)(=O)c1ccc(CNC(=O)c2ccc(Cl)c(S(=O)(=O)Nc3cc(Cl)ccc3Cl)c2)cc1` was tested. Which IC50 did it give?
**A.** Its IC50 is > 50 µM (inactive).

**Q.** `COc1ccc(-c2nc(Cn3nnc(C(=O)Nc4ccc(C)c(C)c4)c3N)c(C)o2)cc1` was tested. Which IC50 did it give?
**A.** Its IC50 is > 50 µM (inactive).

**Q.** How did the IC50 turn out when `O=C1c2c(O)ccc(O)c2C2(Oc3cccc4cccc(c34)O2)C2OC12` (stereo not given) was run?
**A.** The IC50 was > 50 µM (inactive).

**Q.** `O=C(OC1CSc2nc3ccccc3n2C1)c1ccc([N+](=O)[O-])o1` (stereo not given) was tested. Which IC50 did it give?
**A.** Its IC50 is > 50 µM (inactive).

**Q.** For `Cc1ccc(NC(=O)Cn2c(=O)n(CC(=O)NCCc3ccccc3)c(=O)c3sccc32)cc1C`, which IC50 is on record?
**A.** The IC50 was > 50 µM (inactive).

**Q.** `Cc1nc(-c2noc(-c3cccc(F)c3)n2)cn1CC(=O)Nc1ccccc1` was tested. Which IC50 did it give?
**A.** The IC50 was > 50 µM (inactive).

**Q.** How did the IC50 turn out when `NC(=O)c1ccccc1NC(=O)COc1ccc2c(c1)oc(=O)c1ccccc12` was run?
**A.** Its IC50 is > 50 µM (inactive).

**Q.** `Cn1c(=O)c(C(=O)Nc2ccc(Br)cc2)nc2ccccc21` was tested. Which IC50 did it give?
**A.** Its IC50 is > 50 µM (inactive).

**Q.** `CCc1ccc(NC(=O)C(C)OC(=O)/C=C/c2ccc(S(=O)(=O)Nc3cccc(S(N)(=O)=O)c3)cc2)cc1` (stereo not given) was tested. Which IC50 did it give?
**A.** The IC50 was > 50 µM (inactive).

**Q.** How did the IC50 turn out when `O=C(CSc1nc2c(cnn2-c2ccccc2)c(=O)[nH]1)Nc1ccc(Cl)cc1F` was run?
**A.** Its IC50 is > 50 µM (inactive).

**Q.** `O=C(c1ccco1)N1CCC2(CC1)CC1(CO2)Nc2ccccc2-n2cccc21` (stereo not given) was tested. Which IC50 did it give?
**A.** Its IC50 is > 50 µM (inactive).

**Q.** With `CN(C)[C@@H]1C(=O)C(C(N)=O)=C(O)[C@@]2(O)C(=O)C3=C(O)c4c(O)cccc4[C@@](C)(O)C3[C@H](O)[C@@H]12` (stereo not given in full) as the compound, how does the pIC50 read?
**A.** The pIC50 was 5.20.

**Q.** For `Cc1cc(C(F)(F)F)n2nc(C3CCN(C(=O)c4cnn(C)c4C)C3)cc2n1` (stereo not given), which IC50 is on record?
**A.** Its IC50 is > 50 µM (inactive).

**Q.** `O=C(Nc1ccccc1-c1nc2ccccc2[nH]1)c1sc2ccccc2c1Cl` was tested. Which pIC50 did it give?
**A.** The pIC50 was 4.45.

**Q.** `Cc1cc(=O)n(CC(=O)Nc2ccccc2C)c(Nc2ccc(F)cc2)n1` was tested. Which IC50 did it give?
**A.** The IC50 was > 50 µM (inactive).

**Q.** For `Cc1sc(NC(=O)Cn2nnc3ccccc32)nc1-c1ccc2c(c1)CCN2C(=O)c1ccccc1F`, which IC50 is on record?
**A.** Its IC50 is > 50 µM (inactive).

**Q.** How did the IC50 turn out when `COc1cn(-c2ccc(F)cc2)nc1C(=O)Nc1ccc(Cl)cc1Cl` was run?
**A.** The IC50 was > 50 µM (inactive).
